Measurements taken from US11667645B2, “Granzyme B directed imaging and therapy” (CytoSite Biopharma Inc., priority 2018, dated 2023).

Target: Granzyme B (human lymphocytes) (Homo sapiens (Human), UniProt P10144)
Test: human Granzyme B biochemical assay
Settings: Granzyme B (human lymphocytes) 5 nM, substrate Ac-IETD-AFC 200 μM, Cpd incubation with enzyme 30 mins, 22° C., read time 60 mins; read-out: IC50
Excerpt: The compounds of Formula I-VIII described above can be tested using the human Granzyme B biochemical assay provided below.
Materials: • 1. Granzyme B (human lymphocytes) Enzyme: Enzo Lifesciences, Cat #ALX-200-602-0010 • 2. Substrate (Ac-IETD-AFC): Enzo Lifesciences, Cat #ALX-260-110-M010 • 3. Standard inhibitor (Compound 20-Isomer3): Synthesized internally in TCG • 4. Dimethyl sulfoxide (DMSO): Sigma-Aldrich, Cat #41639 • 5. HEPES: Gibco, Cat #15630-080 • 6. Calcium chloride: Sigma-Aldrich, Cat #C-5080 • 7. Distilled water: Gibco, Cat #15230-162 • 8. Bovine serum albumin (BSA): Sigma-Aldrich, Cat #A3059 • 9. Black, clear bottom PDL plate (384 wells): Greiner bio-one, Cat #781946 • 10. Polypropylene plate (384 wells): Corning, Cat #3657 Assay Buffer Composition:
Compound Preparation: • 1. DMSO is added to the respective compound vial to make 10 mM Compound stock solution, which is stored at −20° C. • 2. 10 mM Compound stock solution is thawed and 1 mM DMSO stock solution is prepared by adding 45 μl of DMSO to 5 μl of 10 mM compound stock solution. • 3. 1 mM DMSO stock solution is serially diluted (3.16 fold) by adding 10 μl of 1 mM DMSO stock to 21.6 μl of DMSO and mixed well. 10 μl of the resulting solution is then added to 21.6 μl of DMSO and mixed well. This process is continued to create 11 dilution points for the assay standard inhibitor and 8 dilution points for test compounds in 384 well polypropylene plate. • 4. 2 μl of each dilution are dispensed in assay ready plate. • 5. Each well is then diluted 25 fold by adding 48 μl of assay buffer to 2 μl of compound in assay ready plate to make Compound working stock. Enzyme Preparation: • 1. Supplied Granzyme B (human lymphocytes) enzyme is reconstituted to 1 mg/ml (about 31.25 μM) and 1 μl aliquots are kept in −80° C. • 2. 1 μl aliquot is diluted to 625 nM by adding 49 μl of assay buffer containing 0.1% BSA and gently mixed. • 3. 10 nM enzyme working stock is prepared by adding assay buffer containing 0.1% BSA. Substrate Preparation: • 1. Supplied substrate (Ac-IETD-AFC) is reconstituted by adding DMSO to make 10 mM stock, aliquoted and stored in −80° C. • 2. 4 mM substrate mid stock is prepared by adding DMSO. • 3. Substrate working stock i.e. 800 μM is prepared by adding assay buffer. Assay Protocol: • 1. 10 μl of serially diluted Compound working stock (start dose 40 μM) is added from assay ready plate to assay plate according to the plate map. • 2. Positive control (40 μM of standard inhibitor) and negative control (4% DMSO buffer) are added to the respective wells. • 3. 20 μl of Enzyme working stock is added to assay plate and gently mixed. • 4. The plate is incubated at 22° C. for 30 mins and spun at 130 g for 1 minute. • 5. After incubation, 10 μl of Substrate working stock is added to respective wells and mixed (Assay plate is maintained in dark after substrate addition). • 6. The plate is incubated at 22° C. for 60 mins and spun at 130 g for 1 minute. • 7. Fluorescence read (RFU) (Ex: 400 nm/Em: 505 nm) is taken after 60 mins in EnVision Multimode plate reader. Final Assay Concentration:
Data Analysis: • 1. The RFU read is analyzed to calculate percent inhibition by normalizing with positive and negative controls taken as 100% and 0% effect respectively in Microsoft excel. • 2. Graph is generated by putting the analyzed data in GraphPad prism 5.0 software to get IC50 value for each compound.

Sequence of Granzyme B (human lymphocytes) (P10144 21-247): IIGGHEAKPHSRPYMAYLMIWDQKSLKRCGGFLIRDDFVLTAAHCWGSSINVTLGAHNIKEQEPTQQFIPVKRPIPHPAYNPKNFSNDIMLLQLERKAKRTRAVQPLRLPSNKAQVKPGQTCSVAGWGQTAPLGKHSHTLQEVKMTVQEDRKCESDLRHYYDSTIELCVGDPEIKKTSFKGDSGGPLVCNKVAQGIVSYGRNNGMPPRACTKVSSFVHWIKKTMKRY

| Structure (SMILES) | IC50 |
| --- | --- |
| CCC(C)[C@H](NC(=O)COCCF)C(=O)N[C@H]1CCc2cccc3c2N(C1=O)[C@H](C(=O)NCc1ccoc1)C3 (stereo in doubt) [Compound C108, (2S,5S)-5-{(2S,3R)-2-[2-(2-Fluoro-ethoxy)-acetylamino]-3-methyl-pentanoylamino}-4-oxo-1,2,4,5,6,7-hexahydro-azepino[3,2,1-hi]indole-2-carboxylic acid (furan-3-ylmethyl)-amide] | > 5 µM |
| O=C(Cc1csc2ccccc12)NCC(=O)N[C@H]1CCc2cccc3c2N(C1=O)[C@H](C(=O)NCc1c[nH]nn1)C3 [Compound C001, (2S,5S)-5-[2-(2-Benzo[b]thiophen-3-yl-acetylamino)-acetylamino]-4-oxo-1,2,4,5,6,7-hexahydro-azepino[3,2,1-hi]indole-2-carboxylic acid (1H-[1,2,3]triazol-4-ylmethyl)-amide] | > 5 µM |
| C[C@H](NC(=O)Cc1csc2ccccc12)C(=O)N[C@H]1CCc2cccc3c2N(C1=O)[C@H](C(=O)NCc1c[nH]nn1)C3 [Compound C002, (2S,5S)-5-[(S)-2-(2-Benzo[b]thiophen-3-yl-acetylamino)propionylamino]-4-oxo-1,2,4,5,6,7-hexahydro-azepino[3,2,1-hi]indole-2-carboxylic acid (1H-[1,2,3]triazol-4-ylmethyl)amide] | 1 to 5 µM |
| O=C(Cc1csc2ccccc12)N[C@@H](Cc1ccccc1)C(=O)N[C@H]1CCc2cccc3c2N(C1=O)[C@H](C(=O)NCc1c[nH]nn1)C3 [Compound C004, (2S,5S)-5-[(S)-2-(2-Benzo[b]thiophen-3-yl-acetylamino)-3-phenyl-propionylamino]-4-oxo-1,2,4,5,6,7-hexahydro-azepino[3,2,1-hi]indole-2-carboxylic acid (1H-[1,2,3]triazol-4-ylmethyl)-amide] | > 5 µM |
| CC(C)C[C@H](NC(=O)Cc1csc2ccccc12)C(=O)N[C@H]1CCc2cccc3c2N(C1=O)[C@H](C(=O)NCc1c[nH]nn1)C3 [Compound C005, (2S,5S)-5-[(S)-2-(2-Benzo[b]thiophen-3-yl-acetylamino)-4-methyl-pentanoylamino]-4-oxo-1,2,4,5,6,7-hexahydro-azepino[3,2,1-hi]indole-2-carboxylic acid (1H-[1,2,3]triazol-4-ylmethyl)-amide] | 1 to 5 µM |
| O=C(Cc1csc2ccccc12)N[C@@H](CO)C(=O)N[C@H]1CCc2cccc3c2N(C1=O)[C@H](C(=O)NCc1c[nH]nn1)C3 [Compound C007, (2S,5S)-5-[(S)-2-(2-Benzo[b]thiophen-3-yl-acetylamino)-3-hydroxy-propionylamino]-4-oxo-1,2,4,5,6,7-hexahydro-azepino[3,2,1-hi]indole-2-carboxylic acid (1H-[1,2,3]triazol-4-ylmethyl)-amide] | > 5 µM |
| O=C(O)CC[C@H](NC(=O)Cc1csc2ccccc12)C(=O)N[C@H]1CCc2cccc3c2N(C1=O)[C@H](C(=O)NCc1c[nH]nn1)C3 [Compound C008, (S)-4-(2-Benzo[b]thiophen-3-yl-acetylamino)-4-{(2S,5S)-4-oxo-2-[(1H-[1,2,3]triazol-4-ylmethyl)-carbamoyl]-1,2,4,5,6,7-hexahydro-azepino[3,2,1-hi]indol-5-ylcarbamoyl}butyric acid] | > 5 µM |
| O=C(Cc1csc2ccccc12)N[C@H](C(=O)N[C@H]1CCc2cccc3c2N(C1=O)[C@H](C(=O)NCc1c[nH]nn1)C3)c1ccccc1 [Compound C009, (2S,5S)-5-[(S)-2-(2-Benzo[b]thiophen-3-yl-acetylamino)-2-phenyl-acetylamino]-4-oxo-1,2,4,5,6,7-hexahydro-azepino[3,2,1-hi]indole-2-carboxylic acid (1H-[1,2,3]triazol-4-ylmethyl)-amide] | > 5 µM |
| O=C(Cc1csc2ccccc12)N[C@@H](Cc1ccc(O)cc1)C(=O)N[C@H]1CCc2cccc3c2N(C1=O)[C@H](C(=O)NCc1c[nH]nn1)C3 [Compound C010, (2S,5S)-5-[(S)-2-(2-Benzo[b]thiophen-3-yl-acetylamino)-3-(4-hydroxy-phenyl)-propionylamino]-4-oxo-1,2,4,5,6,7-hexahydro-azepino[3,2,1-hi]indole-2-carboxylic acid (1H-[1,2,3]triazol-4-ylmethyl)-amide] | > 5 µM |
| O=C(Cc1csc2ccccc12)N[C@@H](Cc1ccc(F)cc1)C(=O)N[C@H]1CCc2cccc3c2N(C1=O)[C@H](C(=O)NCc1c[nH]nn1)C3 [Compound C011, (2S,5S)-5-[(S)-2-(2-Benzo[b]thiophen-3-yl-acetylamino)-3-(4fluoro-phenyl)-propionylamino]-4-oxo-1,2,4,5,6,7-hexahydro-azepino[,3,2,1-hi]indole-2-carboxylic acid (1H-[1,2,3]triazol-4-ylmethyl)-amide] | > 5 µM |
| C[C@H](NC(=O)Cc1ccccc1)C(=O)N[C@H]1CCc2cccc3c2N(C1=O)[C@H](C(=O)NCc1c[nH]nn1)C3 [Compound C013, (2S,5S)-4-Oxo-5-((S)-2-phenylacetylamino-propionylamino)-1,2,4,5,6,7-hexahydro-azepino[3,2,1-hi]indole-2-carboxylic acid (1H-[1,2,3]triazol-4-ylmethyl)-amide] | > 5 µM |
| CC(C)[C@H](NC(=O)Cc1ccccc1)C(=O)N[C@H]1CCc2cccc3c2N(C1=O)[C@H](C(=O)NCc1c[nH]nn1)C3 [Compound C014, (2S,5S)-5-((S)-3-Methyl-2-phenylacetylamino-butyrylamino)-4-oxo-1,2,4,5,6,7-hexahydro-azepino[3,2,1-hi]indole-2-carboxylic acid (1H-[1,2,3]triazol-4-ylmethyl)-amide] | 0.001 to 0.3 µM |
| O=C(Cc1ccccc1)N[C@@H](Cc1ccccc1)C(=O)N[C@H]1CCc2cccc3c2N(C1=O)[C@H](C(=O)NCc1c[nH]nn1)C3 [Compound C015, (2S,5S)-4-Oxo-5-((S)-3-phenyl-2-phenylacetylamino-propionylamino)-1,2,4,5,6,7-hexahydro-azepino[3,2,1-hi]indole-2-carboxylic acid (1H-[1,2,3]triazol-4-ylmethyl)-amide] | 1 to 5 µM |
| CC(C)C[C@H](NC(=O)Cc1ccccc1)C(=O)N[C@H]1CCc2cccc3c2N(C1=O)[C@H](C(=O)NCc1c[nH]nn1)C3 [Compound C016, (2S,5S)-5-((S)-4-Methyl-2-phenylacetylamino-pentanoylamino)-4-oxo-1,2,4,5,6,7-hexahydro-azepino[3,2,1-hi]indole-2-carboxylic acid (1H-[1,2,3]triazol-4-ylmethyl)-amide] | 1 to 5 µM |
| CC[C@H](C)[C@H](NC(=O)Cc1ccccc1)C(=O)N[C@H]1CCc2cccc3c2N(C1=O)[C@H](C(=O)NCc1c[nH]nn1)C3 [Compound C017, (2S,5S)-5-((2S,3S)-3-Methyl-2-phenylacetylamino-pentanoylamino)-4-oxo-1,2,4,5,6,7-hexahydro-azepino[3,2,1-hi]indole-2-carboxylic acid(1H-[1,2,3]triazol-4-ylmethyl)-amide] | 0.001 to 0.3 µM |
| O=C(Cc1ccccc1)N[C@@H](CO)C(=O)N[C@H]1CCc2cccc3c2N(C1=O)[C@H](C(=O)NCc1c[nH]nn1)C3 [Compound C018, (2S,5S)-5-((S)-3-Hydroxy-2-phenylacetylamino-propionylamino)-4-oxo-1,2,4,5,6,7-hexahydro-azepino[3,2,1-hi]indole-2-carboxylic acid (1H-[1,2,3]triazol-4-ylmethyl)-amide] | > 5 µM |
